# Source: patent publication US10442778B2, “N1-phenylpropane-1,2-diamine compounds with selective activity in voltage-gated sodium channels” (Merck Sharp & Dohme Corp., priority 2016, dated 2019)
# How the values were obtained:
# [1] = target: T1, human Nav1.7 channels stably expressed in HEK 293 cells (Homo sapiens, UniProt Q15858); assay: IonWorks Quattro automated patch-clamp, inactivated state block of Nav1.7; assay type: cell-based; settings: double-pulse protocol, read-out: potency for the Nav 1.7 sodium ion channel (as measured by IonWorks)
# T1 construct: expressed in transfected cells; host or cells: HEK 293
# Experimental: (§1) Compounds were tested on human Nav1.7 and Nav1.5 channels stably expressed in HEK 293 cells. […] Cells were sealed on a planar substrate using the Population Patch Plate (PPC) technology. Electrical access was obtained using both nystatin and amphotericin. A double-pulse protocol was used for the determination of IC50 values for inactivated state block. Nav1.7 and Nav1.5 expressing cells were voltage clamped at −100 mV and −110 mV, respectively. A depolarizing prepulse to −10 mV (Nav1.7) or −30 mV (Nav1.5) for 1000 ms followed by a 10 ms repolarization to −100 mV (Nav1.7) or −110 mV (Nav1.5) was given to generate fractional channel inactivation of ˜50%, followed by a 10 ms test pulse to −10 mV (Nav1.7) or −30 mV (Nav1.5) to measure peak current in control conditions and after compound addition. The following recording solutions were used (mM). External: 150 NaCl, 2 CaCl2, 5 KCl, 1 Mg Cl2, 10 HEPES, 12 Dextrose; internal: 120 CsF, 30 CsCl, 10 EGTA, 5 HEPES, 5 NaF, 2 MgCl2.
# (§2) For all electrophysiology experiments, offline analysis was used to determine percent inhibition as a function of drug concentration. IC50 values were determined by fitting to the Hill equation.
# [2] = target: T2, human Nav1.5 channels stably expressed in HEK 293 cells (Homo sapiens, UniProt Q14524); assay: IonWorks Quattro automated patch-clamp, inactivated state block of Nav1.5 (selectivity); assay type: cell-based; settings: IonWorks measurement, both channels in HEK 293 cells
# T2 construct: expressed in transfected cells; host or cells: HEK 293
# Experimental: as §1, §2
# T2 sequence (Q14524 whole entry): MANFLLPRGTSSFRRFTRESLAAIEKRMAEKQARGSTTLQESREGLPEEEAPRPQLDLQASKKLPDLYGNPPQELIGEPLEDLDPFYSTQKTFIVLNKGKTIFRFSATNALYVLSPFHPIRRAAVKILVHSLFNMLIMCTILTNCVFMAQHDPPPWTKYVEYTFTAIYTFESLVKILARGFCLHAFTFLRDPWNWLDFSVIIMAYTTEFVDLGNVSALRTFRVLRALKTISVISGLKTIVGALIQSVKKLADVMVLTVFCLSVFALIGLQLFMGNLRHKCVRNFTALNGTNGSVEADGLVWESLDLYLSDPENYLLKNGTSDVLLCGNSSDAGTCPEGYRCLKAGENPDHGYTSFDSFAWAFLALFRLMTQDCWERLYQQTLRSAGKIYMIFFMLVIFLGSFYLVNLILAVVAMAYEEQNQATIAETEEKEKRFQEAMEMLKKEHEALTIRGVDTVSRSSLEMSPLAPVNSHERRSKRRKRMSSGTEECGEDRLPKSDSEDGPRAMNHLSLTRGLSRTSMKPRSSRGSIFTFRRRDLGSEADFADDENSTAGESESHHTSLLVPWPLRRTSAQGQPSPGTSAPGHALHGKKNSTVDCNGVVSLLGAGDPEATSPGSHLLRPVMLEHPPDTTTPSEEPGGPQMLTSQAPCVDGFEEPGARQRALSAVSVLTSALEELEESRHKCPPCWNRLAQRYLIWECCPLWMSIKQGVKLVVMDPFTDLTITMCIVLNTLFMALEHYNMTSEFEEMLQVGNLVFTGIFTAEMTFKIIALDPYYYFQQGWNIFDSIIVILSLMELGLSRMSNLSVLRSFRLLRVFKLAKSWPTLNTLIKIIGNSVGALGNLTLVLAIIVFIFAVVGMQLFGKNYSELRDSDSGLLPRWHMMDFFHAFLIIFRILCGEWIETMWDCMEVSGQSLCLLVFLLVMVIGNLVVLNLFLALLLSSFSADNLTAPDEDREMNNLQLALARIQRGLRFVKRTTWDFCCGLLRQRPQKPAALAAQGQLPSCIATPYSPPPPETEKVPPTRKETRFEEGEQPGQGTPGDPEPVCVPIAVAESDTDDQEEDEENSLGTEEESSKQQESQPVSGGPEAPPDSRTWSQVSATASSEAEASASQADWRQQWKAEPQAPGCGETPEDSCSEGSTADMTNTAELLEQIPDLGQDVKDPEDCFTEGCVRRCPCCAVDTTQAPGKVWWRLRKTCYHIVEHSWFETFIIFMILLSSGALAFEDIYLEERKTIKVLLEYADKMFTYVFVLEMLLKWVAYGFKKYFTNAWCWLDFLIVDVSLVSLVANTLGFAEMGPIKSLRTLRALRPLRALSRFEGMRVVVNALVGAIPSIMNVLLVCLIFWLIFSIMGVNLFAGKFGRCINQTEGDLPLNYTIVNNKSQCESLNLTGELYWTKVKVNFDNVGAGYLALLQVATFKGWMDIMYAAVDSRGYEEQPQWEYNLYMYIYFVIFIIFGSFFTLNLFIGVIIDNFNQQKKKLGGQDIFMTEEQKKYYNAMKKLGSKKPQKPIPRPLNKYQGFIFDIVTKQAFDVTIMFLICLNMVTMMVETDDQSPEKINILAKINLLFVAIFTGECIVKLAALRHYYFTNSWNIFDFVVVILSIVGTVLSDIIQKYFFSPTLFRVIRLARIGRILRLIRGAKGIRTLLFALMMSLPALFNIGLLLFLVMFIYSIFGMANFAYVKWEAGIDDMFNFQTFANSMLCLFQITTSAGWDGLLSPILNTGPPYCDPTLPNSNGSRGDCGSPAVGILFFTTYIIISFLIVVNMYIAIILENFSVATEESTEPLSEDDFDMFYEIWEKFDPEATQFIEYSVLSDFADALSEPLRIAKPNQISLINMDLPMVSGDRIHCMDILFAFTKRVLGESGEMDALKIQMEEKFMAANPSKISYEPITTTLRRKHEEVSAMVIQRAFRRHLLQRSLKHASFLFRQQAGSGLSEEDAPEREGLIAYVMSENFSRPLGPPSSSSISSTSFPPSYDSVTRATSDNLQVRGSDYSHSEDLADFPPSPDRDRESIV
# T1 sequence (Q15858 whole entry): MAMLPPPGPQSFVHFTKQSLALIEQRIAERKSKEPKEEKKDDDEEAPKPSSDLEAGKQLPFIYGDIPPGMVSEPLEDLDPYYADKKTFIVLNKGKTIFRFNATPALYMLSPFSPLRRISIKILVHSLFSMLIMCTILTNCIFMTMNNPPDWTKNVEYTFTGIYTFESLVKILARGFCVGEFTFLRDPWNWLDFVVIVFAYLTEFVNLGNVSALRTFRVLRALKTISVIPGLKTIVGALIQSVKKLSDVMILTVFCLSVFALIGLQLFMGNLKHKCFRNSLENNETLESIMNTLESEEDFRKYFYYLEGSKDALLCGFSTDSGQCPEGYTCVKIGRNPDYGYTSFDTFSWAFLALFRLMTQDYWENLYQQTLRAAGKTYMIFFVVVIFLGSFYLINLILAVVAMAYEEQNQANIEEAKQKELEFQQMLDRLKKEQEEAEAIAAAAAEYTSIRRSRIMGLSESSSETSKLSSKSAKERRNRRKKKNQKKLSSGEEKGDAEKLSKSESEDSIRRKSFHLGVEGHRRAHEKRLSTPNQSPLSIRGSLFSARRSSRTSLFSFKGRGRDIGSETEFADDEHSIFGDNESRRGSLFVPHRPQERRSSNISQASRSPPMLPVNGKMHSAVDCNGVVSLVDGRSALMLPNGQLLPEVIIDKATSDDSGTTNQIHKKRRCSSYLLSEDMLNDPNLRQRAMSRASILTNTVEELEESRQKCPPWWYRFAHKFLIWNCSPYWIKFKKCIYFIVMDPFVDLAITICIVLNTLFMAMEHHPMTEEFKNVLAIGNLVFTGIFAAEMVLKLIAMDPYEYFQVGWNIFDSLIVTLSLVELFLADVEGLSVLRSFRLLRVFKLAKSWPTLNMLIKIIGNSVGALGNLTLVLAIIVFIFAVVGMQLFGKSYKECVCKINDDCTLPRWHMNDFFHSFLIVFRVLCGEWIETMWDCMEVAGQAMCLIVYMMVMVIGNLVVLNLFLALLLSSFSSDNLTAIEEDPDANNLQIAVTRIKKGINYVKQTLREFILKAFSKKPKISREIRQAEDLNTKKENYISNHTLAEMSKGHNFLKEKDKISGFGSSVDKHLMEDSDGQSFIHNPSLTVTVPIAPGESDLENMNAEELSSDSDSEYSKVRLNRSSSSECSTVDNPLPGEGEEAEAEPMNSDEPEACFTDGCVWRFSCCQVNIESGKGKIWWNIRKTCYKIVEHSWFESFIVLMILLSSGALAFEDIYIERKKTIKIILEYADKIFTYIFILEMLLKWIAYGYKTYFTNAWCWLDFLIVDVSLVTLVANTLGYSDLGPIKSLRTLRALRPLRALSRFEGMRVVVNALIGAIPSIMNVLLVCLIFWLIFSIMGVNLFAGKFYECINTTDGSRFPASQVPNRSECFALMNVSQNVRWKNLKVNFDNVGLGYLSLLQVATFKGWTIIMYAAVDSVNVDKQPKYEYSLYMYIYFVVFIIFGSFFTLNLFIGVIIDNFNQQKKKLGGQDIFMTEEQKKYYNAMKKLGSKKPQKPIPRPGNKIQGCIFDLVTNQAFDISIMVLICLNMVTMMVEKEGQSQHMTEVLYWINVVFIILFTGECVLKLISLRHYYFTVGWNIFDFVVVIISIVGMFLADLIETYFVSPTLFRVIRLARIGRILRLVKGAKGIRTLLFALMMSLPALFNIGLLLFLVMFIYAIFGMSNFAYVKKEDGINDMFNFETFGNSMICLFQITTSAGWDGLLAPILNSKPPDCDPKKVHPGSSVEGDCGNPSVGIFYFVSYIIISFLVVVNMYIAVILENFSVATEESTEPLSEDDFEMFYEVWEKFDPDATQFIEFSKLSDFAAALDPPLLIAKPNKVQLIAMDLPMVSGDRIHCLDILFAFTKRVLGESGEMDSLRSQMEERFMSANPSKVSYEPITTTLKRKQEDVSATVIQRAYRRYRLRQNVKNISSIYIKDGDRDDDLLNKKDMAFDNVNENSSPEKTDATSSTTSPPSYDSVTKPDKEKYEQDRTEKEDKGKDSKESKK
Compound,IC50 [1] [µM],ratio of Nav1.7 potency:Nav 1.5 potency [2]
"CN[C@H](CNc1cc(F)c(S(=O)(=O)Nc2ncc(F)s2)cc1Cl)C[Si](C)(C)C [Ex2-17, (R)-5-chloro-2-fluoro-N-(5-fluorothiazol-2-yl)-4-((2-(methylamino)-3-(trimethylsilyl)propyl)-amino)benzenesulfonamide]",0.014,> 1929
"CCN[C@H](CNc1cc(F)c(S(=O)(=O)Nc2ncc(F)s2)cc1Cl)C[Si](C)(C)C [Ex7-4, (R)-5-chloro-4-((2-(ethylamino)-3-(trimethylsilyl)propyl)amino)-2-fluoro-N-(5-fluorothiazol-2-yl)benzenesulfonamide]",0.003,> 11000
"CN[C@H](CNc1cc(F)c(S(=O)(=O)Nc2nccs2)cc1Cl)CC1CCCCC1 [Ex1-18, (S)-5-chloro-4-((3-cyclohexyl-2-(methylamino)propyl)amino)-2-fluoro-N-(thiazol-2-yl)benzenesulfonamide]",0.015,> 2200
"CN(C)[C@H](CNc1cc(F)c(S(=O)(=O)Nc2ncc(F)s2)cc1Cl)C[Si](C)(C)C [Ex7-2, (R)-5-chloro-4-((2-(dimethylamino)-3-(trimethylsilyl)propyl)-amino)-2-fluoro-N-(5-fluorothiazol-2-yl)benzenesulfonamide]",0.018,> 889
"CN[C@H](CNc1cc(F)c(S(=O)(=O)Nc2ncc(F)s2)cc1Cl)CC1CC1 [Ex2-18, (S)-5-chloro-4-((3-cyclopropyl-2-(methylamino)propyl)amino)-2-fluoro-N-(5-fluorothiazol-2-yl)-benzenesulfonamide]",0.85,> 39
"CCCC[C@@H](CNc1cc(F)c(S(=O)(=O)Nc2ncc(F)s2)cc1Cl)NC(C)C [Ex7-6, (S)-5-chloro-2-fluoro-N-(5-fluorothiazol-2-yl)-4-((2-(isopropylamino)hexyl)amino) benzenesulfonamide]",0.03,> 533
"CN[C@H](CNc1cc(F)c(S(=O)(=O)Nc2nccs2)cc1Cl)Cc1ccc(Br)cc1 [Ex1-25, (S)-4-((3-(4-bromo-phenyl)-2-(methylamino)-propyl)amino)-5-chloro-2-fluoro-N-(thiazol-2-yl)-benzenesulfonamide]",0.11,
"CN[C@H](CNc1cc(F)c(S(=O)(=O)Nc2ncc(F)s2)cc1Cl)Cc1ccccc1 [Ex1-27, (S)-5-chloro-2-fluoro-N-(5-fluorothiazol-2-yl)-4-((2-(methylamino)-3-phenylpropyl)amino)-benzenesulfonamide]",0.19,> 174
"CN[C@@H](CCC1(C)CC1)CNc1cc(F)c(S(=O)(=O)Nc2ncc(F)s2)cc1Cl [Ex2-23, (S)-5-chloro-2-fluoro-N-(5-fluorothiazol-2-yl)-4-((2-(methylamino)-4-(1-methylcyclopropyl)butyl)amino)benzenesulfonamide]",0.012,> 2750
"CN[C@H](CNc1cc(F)c(S(=O)(=O)Nc2ncc(F)s2)cc1Cl)CC1(C)CC1 [Ex6-10, (S)-5-chloro-2-fluoro-N-(5-fluorothiazol-2-yl)-4-((2-(methylamino)-3-(1-methylcyclopropyl)propyl)amino)benzenesulfonamide]",0.34,> 68
"CN[C@H](CNc1cc(F)c(S(=O)(=O)Nc2nccs2)cc1Cl)CC1(C(F)(F)F)CC1 [Ex2-16, (S)-5-chloro-2-fluoro-4-((2-(methylamino)-3-(1-(trifluoromethyl)cyclopropyl)-propyl)amino)-N-(thiazol-2-yl)-benzenesulfonamide]",0.12,> 275
"CN[C@H](CNc1cc(F)c(S(=O)(=O)Nc2ncc(F)s2)cc1Cl)CC1CCC1 [Ex2-12, (S)-5-chloro-4-((3-cyclobutyl-2-(methylamino)propyl)amino)-2-fluoro-N-(5-fluorothiazol-2-yl)benzenesulfonamide]",1.03,> 32
"CN[C@H](CNc1cc(F)c(S(=O)(=O)Nc2ncc(F)s2)cc1Cl)CC1(CF)CC1 (single isomer, unassigned) [Ex5-4]",2,> 14
"CN(C)[C@H](CNc1cc(F)c(S(=O)(=O)Nc2ncc(F)s2)cc1Cl)CC1(C)CC1 [Ex7-3, (S)-5-chloro-4-((2-(dimethylamino)-3-(1-methylcyclopropyl)propyl)amino)-2-fluoro-N-(5-fluorothiazol-2-yl)benzenesulfonamide]",0.15,
"CN[C@H](CNc1cc(F)c(S(=O)(=O)Nc2nccs2)cc1Cl)Cc1ccc(F)c(F)c1 [Ex1-31, (S)-5-chloro-4-((3-(3,4-difluorophenyl)-2-(methyl-amino)propyl)amino)-2-fluoro-N-(thiazol-2-yl)-benzenesulfonamide]",0.03,> 1100
"CN[C@H](CNc1cc(F)c(S(=O)(=O)Nc2nccs2)cc1Cl)Cc1cc(F)cc(F)c1 [Ex1-30, (S)-5-chloro-4-((3-(3,5-difluorophenyl)-2-(methyl-amino)-propyl)amino)-2-fluoro-N-(thiazol-2-yl)-benzenesulfonamide]",0.16,> 206
"[2H]C([2H])([2H])N[C@H](CNc1cc(F)c(S(=O)(=O)Nc2ncc(F)s2)cc1Cl)CC(C)(C)C [Ex3-14, (S)-5-chloro-4-((4,4-dimethyl-2-((methyl-d3)amino)pentyl)amino)-2-fluoro-N-(5-fluorothiazol-2-yl)-benzenesulfonamide]",0.064,> 429
"CN[C@H](CNc1cc(F)c(S(=O)(=O)Nc2nccs2)cc1Cl)Cc1cccc(Br)c1 [Ex1-23, (S)-4-((3-(3-bromo-phenyl)-2-(methylamino)-propyl)amino)-5-chloro-2-fluoro-N-(thiazol-2-yl)-benzenesulfonamide]",0.036,> 917
"CN[C@@H](CCc1ccccc1)CNc1cc(F)c(S(=O)(=O)Nc2ncc(F)s2)cc1Cl [Ex1-22, (S)-5-chloro-2-fluoro-N-(5-fluorothiazol-2-yl)-4-((2-(methylamino)-4-phenylbutyl)amino)-benzenesulfonamide]",0.14,> 236
"CN[C@@H](CCC1CC1)CNc1cc(F)c(S(=O)(=O)Nc2ncc(F)s2)cc1Cl [Ex2-19, (S)-5-chloro-4-((4-cyclopropyl-2-(methylamino)butyl)amino)-2-fluoro-N-(5-fluorothiazol-2-yl)-benzenesulfonamide]",0.8,> 41
"CN[C@H](CNc1cc(F)c(S(=O)(=O)Nc2ncc(F)s2)cc1Cl)CC1CC1(C)C (stereo partly drawn) [Ex2-20, 5-chloro-4-(((2S)-3-(2,2-dimethylcyclopropyl)-2-(methylamino)propyl)amino)-2-fluoro-N-(5-fluorothiazol-2-yl)-benzenesulfonamide]",0.068,> 485
"CN[C@H](CNc1cc(F)c(S(=O)(=O)Nc2nccs2)cc1Cl)Cc1ccc(F)cc1 (single isomer, unassigned) [Ex1-12]",0.061,> 541
"CN[C@@H](CCc1ccccc1)CNc1cc(F)c(S(=O)(=O)Nc2nccs2)cc1Cl [Ex1-21, (S)-5-chloro-2-fluoro-4-((2-(methylamino)-4-phenylbutyl)amino)-N-(thiazol-2-yl)-benzenesulfonamide]",0.2,
"CN[C@H](CNc1cc(F)c(S(=O)(=O)Nc2ncc(F)s2)cc1Cl)CC1CC1(Cl)Cl (stereo partly drawn) [Ex2-21, 5-chloro-4-(((2S)-3-(2,2-dichlorocyclopropyl)-2-(methylamino)propyl)amino)-2-fluoro-N-(5-fluorothiazol-2-yl)-benzenesulfonamide]",0.11,
"CN[C@H](CNc1cc(F)c(S(=O)(=O)Nc2ncc(F)s2)cc1Cl)CC1(C(F)(F)F)CC1 [Ex2-14, (S)-5-chloro-2-fluoro-N-(5-fluorothiazol-2-yl)-4-((2-(methylamino)-3-(1-(trifluoromethyl)cyclopropyl)-propyl)amino)benzenesulfonamide]",0.17,
"CN[C@H](CNc1cc(F)c(S(=O)(=O)Nc2ncns2)cc1Cl)Cc1ccccc1 [Ex1-26, (S)-5-chloro-2-fluoro-4-((2-(methylamino)-3-phenylpropyl)amino)-N-(1,2,4-thiadiazol-5-yl)-benzenesulfonamide]",0.2,
"CN[C@H](CNc1cc(F)c(S(=O)(=O)Nc2ncc(F)s2)cc1Cl)CC1CCCC1 (single isomer, unassigned) [Ex3-11]",0.11,
"CN[C@H](CNc1cc(F)c(S(=O)(=O)Nc2nccs2)cc1Cl)Cc1ccccc1 [Ex1-7, (S)-5-chloro-2-fluoro-4-((2-(methylamino)-3-phenylpropyl)amino)-N-(thiazol-2-yl)benzenesulfonamide]",0.2,
"CN[C@H](CNc1cc(F)c(S(=O)(=O)Nc2nccs2)cc1Cl)Cc1ccc(F)cc1Br [Ex1-32, (S)-4-((3-(2-bromo-4-fluorophenyl)-2-(methyl-amino)propyl)-amino)-5-chloro-2-fluoro-N-(thiazol-2-yl)-benzenesulfonamide]",0.17,
